Measurements: patent US5968949A, “Substituted hydroisoquinoline derivatives and their use as pharmaceuticals” (SmithKline Beecham S.p.A., priority 1995, dated 1999)

System: delta receptor
Assay: Radioligand binding assay, [3H]-DADLE in mouse brain membranes
Conditions: stated in words after the delta affinity range
Description: The activity of the compounds of the present invention as selective delta ligands is determined in radioligand binding assays as described below.
Mouse brain membranes were prepared as described by Kosterlitz (Br. J. Pharmacol., 1981, 73, 939.). The binding of the preferential delta ligand [^3 H]-[D-Ala^2,D-Leu^5 ]-enkephalin (DADLE) was evaluated at its KD concentration (1.3 nM) in presence of 40 nM of the unlabelled mu ligand [D-Ala^2, MePhe^4, Gly-ol5]-enkephalin (DAMGO). The binding of the mu ligand [^3 H]-DAMGO (Eur. J. Pharmacol., 1989, 166, 213) and of the kappa ligand [^3 H]-U69593 (Excerpta Medica, 1990, 211) were carried out at 0.5 nM. The non-specific binding was determined in presence of naloxone (10 μM) for all tritiated ligands. Binding data were expressed as percentage of inhibition and fitted the following equation: f(x)=100.X/(IC50 +X) where X are cold drug concentration values. The IC50 obtained were used to calculate the inhibitory constants (Ki) accordingly to the Cheng and Prusoff relation (Biochem. Pharmacol., 1973, 22, 3099).

SMILES: CN1CC[C@]2(c3cccc(O)c3)CC(c3ccccc3)=CC[C@H]2C1 (racemic) [Example 3, (±)-trans-4a-(3-Hydroxyphenyl)-2-methyl-6-phenyl-1,2,3,4,4a,5,8,8a-octahydroisoquinoline]
- potency rank among the exemplified compounds: most potent of the exemplified compounds
